# In PubChem BioAssay AID1949 (Southern Research Institute, 2009):
# Records with an inconclusive call do not appear. Active and inactive are the calls of the source. No rule for the calls is given here.
# Test system: M. tuberculosis H37Rv growth inhibition
# Test: Confirmatory growth inhibition assay against Mycobacterium tuberculosis H37Rv, potency (AID 1949);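 also: bacteria grown 7 days with compound before Alamar blue readout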
row,SMILES,IC50
1,O=c1c2c(-c3ccc(Cl)cc3)csc2nc2c3ccccc3c(NCCN3CCOCC3)nn12,11.2 mg/L
2,O=c1c(Cl)c(Cl)cnn1Cc1ccccc1Cl,9.65 mg/L
3,Cc1cccc(Nc2nc(-c3ccccn3)cs2)n1,< 0.1 mg/L
4,O=C(CC12CC3CC(CC(C3)C1)C2)Nc1cccc(C(F)(F)F)c1,0.97 mg/L
5,O=C(CC(O)(C(F)(F)F)C(F)(F)F)Nc1cccc(C(F)(F)F)c1,3.59 mg/L
6,O=Cc1cc(COc2ccc(F)cc2Cl)cs1,3.16 mg/L
7,Clc1ccc(-c2csc(-c3cccnc3)n2)cc1,5.82 mg/L
8,Cc1c(Cl)ccc2c(=O)c(C(=O)O)c[nH]c12,29.6 mg/L
9,CCOc1ccc(NC(=O)CSc2nc3ccc([N+](=O)[O-])cc3s2)cc1,1.99 mg/L
10,CCN(CC)c1ccc(NC(=S)NCc2ccc(Cl)cc2)cc1,3.18 mg/L
11,COC(=O)c1c(NC(=O)c2cc3ccccc3oc2=O)sc2c1CCC2,4.29 mg/L
12,CC1=NN(C(=S)Cc2ccccc2)C(C)(O)C1 (centres undefined),2.79 mg/L
13,Cc1ccc(NCCC(=O)c2ccc([N+](=O)[O-])cc2)cc1Cl,19.6 mg/L
14,c1ccc(Nc2nc(Nc3ccccc3)nc(N3CCNCC3)n2)cc1,3.99 mg/L
15,Cc1ccc(Cl)cc1NC(=O)CC(O)(C(F)(F)F)C(F)(F)F,7.04 mg/L
16,Cc1ccc(NC(CC(=O)c2ccc([N+](=O)[O-])cc2)c2ccccc2)cc1 (centres undefined),49.2 mg/L
17,CC(C)OC(=O)COc1cc(O)c2c(=O)cc(-c3ccccc3)oc2c1,19.6 mg/L
18,Cc1ccc(NC(=O)C(C)NS(=O)(=O)c2ccc(Cl)cc2)cc1Cl (centres undefined),2.85 mg/L
19,C#Cc1cccc(NC(=O)COc2ccc(Cl)cc2)c1,8.18 mg/L
20,Oc1ccccc1-c1n[nH]c(/C=C/c2ccccc2Cl)n1,6.45 mg/L
21,Cc1ccc(-c2csc(-c3ccc(O)cc3)n2)cc1,2.69 mg/L

row,SMILES,IC50
1,CCCC(=O)NC(=S)Nc1ccc(N2CCN(C(=O)c3cccs3)CC2)c(Cl)c1,0.61 mg/L
2,O=C(CN1CCN(Cc2ccccc2)CC1)Nc1ccc([N+](=O)[O-])cc1C(=O)c1ccccc1,2.78 mg/L
3,CN(C)c1ccc(Nc2ncnc3ccc(Br)cc23)cc1,1.08 mg/L
4,O=C(Nc1nnc(-c2ccccc2Cl)o1)c1ccco1,1.83 mg/L
5,CC(C)(C)c1cc(Cl)c(O)c(NC(=S)NC(=O)c2cccnc2)c1,< 0.1 mg/L
6,O=C(CCNc1cccc(Cl)c1)c1ccco1,3.68 mg/L
7,CCOC(=O)Cn1cc(C#N)c2cccc(CC)c21,0.87 mg/L
8,Cc1cc(C(C)(C)C)ccc1OCCOCCn1ccnc1,2.93 mg/L
9,O=C(CCSc1ccc(Cl)cc1)Nc1ccc(F)c(Cl)c1,4.06 mg/L
10,Cc1cc2ncn(CCCCOc3ccccc3)c2cc1C,4.6 mg/L
11,COCCCN1C(=O)c2cccc3c([N+](=O)[O-])ccc(c23)C1=O,15.3 mg/L
12,Cc1ccc(Cn2cnc3cc(C)c(C)cc32)cc1,8.24 mg/L
13,N#CCCN(Cc1ccccc1)C(=S)NC(=O)c1ccccc1,2.51 mg/L
14,O=C(Nc1ccc(-c2nc3ccccc3c(=O)o2)cc1)C1CCCCC1,23.9 mg/L
15,O=C(Oc1ccc(F)cc1)c1sc2ccccc2c1Cl,3.07 mg/L
16,CCOC(=O)c1c(-c2cccs2)csc1NC(=O)c1cc2ccccc2oc1=O,4.76 mg/L
17,CC1CCN(C(=S)NC(=O)c2ccc(Cl)cc2)CC1,0.35 mg/L
18,COc1ccc(Nc2nc(-c3ccccn3)cs2)c(OC)c1,< 0.1 mg/L
19,Cc1ccc(Sc2ccc(C=O)o2)cc1,2.15 mg/L
20,CCOC(=O)COc1ccc(Br)c(C=O)c1,5.47 mg/L
21,CC(C)CC(=O)NC(c1ccc(Cl)cc1Cl)c1c(O)ccc2ccccc12 (centres undefined),1.72 mg/L

row,SMILES,IC50
1,O=C(Oc1cccc2cccnc12)c1ccc(Cl)c(S(=O)(=O)N2CCOCC2)c1,1.48 mg/L
2,N#Cc1cc(-c2nc3ccccc3[nH]2)c(N)n2c1nc1ccccc12,11.5 mg/L
3,Cc1cc(C)nc(/N=C(\N)Nc2ccc(OCc3ccc(Cl)cc3)cc2)n1,34.4 mg/L
4,CCOC(=O)COc1ccc2c(=O)c(Oc3cnn(-c4ccccc4)c3)c(C)oc2c1,0.61 mg/L
5,CCc1ccccc1N1C(=O)c2cccc3c([N+](=O)[O-])ccc(c23)C1=O,19 mg/L
6,COc1cc2c(cc1NC(=O)C(=O)NCCCN1CCOCC1)oc1ccccc12,> 50 mg/L (inactive)
7,Cc1ccc2nc(-c3ccncc3)cc(C(=O)Nc3ccncc3)c2c1,> 50 mg/L (inactive)
8,Cc1ccc2cccc(OCCOc3ccccc3C(C)C)c2n1,4.02 mg/L
9,O=c1c2ccccc2nc(/C=C/c2ccc(Br)cc2)n1-c1ccc(O)cc1,> 50 mg/L (inactive)
10,CCOC(=O)COc1ccc(C(=O)Nc2cccc(Cl)c2C)cc1,< 0.1 mg/L
11,Cc1cccc(N2CCN(C(=O)c3ccc(-c4ccccc4)cc3)CC2)c1C,2.34 mg/L
12,O=C(NC1C2CC3CC(C2)CC1C3)c1ccc(-c2ccc(Cl)cc2)o1 (centres undefined),10.9 mg/L
13,CCOC(=O)COc1c(Cl)cc(/C=C(/C#N)c2nc3ccc(OC)cc3[nH]2)cc1Cl,0.2 mg/L
14,CCOC(=O)c1c(-c2ccccc2)oc2ccc(O)c(CN3CCCC3)c12,3.37 mg/L
15,CCOc1ccccc1NC(=O)COc1ccc(C(C)C)cc1,5.01 mg/L
16,CCc1ccc(C2C3=C(CC(C)(C)CC3=O)NC3=C2C(=O)c2ccccc23)cc1 (centres undefined),4.44 mg/L
17,CC(Nc1nc(N2CCCCC2)nc2ccccc12)c1ccccc1 (centres undefined),2.29 mg/L
18,O=C(COc1ccc2c(-c3ccccc3)cc(=O)oc2c1)OC1CCCCC1,< 0.1 mg/L
19,Cc1c(NC(=O)Nc2cccc(C(F)(F)F)c2)cccc1[N+](=O)[O-],2.93 mg/L
20,O=C(/C=C/c1cccc(C(F)(F)F)c1)Nc1ccc(Cl)cc1,5.09 mg/L
21,Brc1ccc2ncnc(Nc3ccc(N4CCCC4)cc3)c2c1,< 0.1 mg/L

row,SMILES,IC50
1,O=S1(=O)C=C(Sc2nc3ccccc3s2)c2ccccc21,< 0.1 mg/L
2,Cc1ccc(C(=O)Nc2ccc([N+](=O)[O-])cc2C)cc1I,< 0.1 mg/L
3,Clc1ccccc1COc1ccc2ccccc2c1CNCc1cccnc1,8.75 mg/L
4,Cc1ccc(C(=O)NCCC23CC4CC(CC(C4)C2)C3)cc1,0.18 mg/L
5,CCC(=O)NC(=S)Nc1ccc(NC(=O)c2cc(I)ccc2Cl)cc1,0.43 mg/L
6,Cc1cccc(OCC(O)CN2CCN(CCN3C(=O)c4cccc5cccc(c45)C3=O)CC2)c1C (centres undefined),2.53 mg/L
7,CCc1nc2ccccc2n1CC(O)COc1ccc(Br)cc1 (centres undefined),4.11 mg/L
8,Cc1cc(C)c2c(N)c3cccc(C)c3nc2n1,> 50 mg/L (inactive)
9,O=[N+]([O-])c1cccc(S(=O)(=O)Nc2cc(Br)c(O)c3ccccc23)c1,5.32 mg/L
10,CCOc1ccc(NC(=O)c2c(NC(=O)CNCCN3CCOCC3)sc3c2CCC3)cc1,1.33 mg/L
11,Cc1ccc(-c2nc3ccc(Br)cc3c(=O)o2)cc1C,> 50 mg/L (inactive)
12,COc1ccc2nc(/C(C#N)=C\c3cccn3-c3ccccc3F)[nH]c2c1,4.8 mg/L
13,C/C=C/c1ccc(OCCCOc2cccc3ccc(C)nc23)c(OC)c1,16.8 mg/L
14,CCN(CC)S(=O)(=O)c1ccc(Cl)c(C(=O)Oc2cccc3cccnc23)c1,2.45 mg/L
15,COC(=O)COc1ccc(NC(=O)c2ccc3c(c2)C(=O)N(C(C)(C)C)C3=O)cc1,0.32 mg/L
16,Cc1ccc2c(c1)c1c(n2CC(O)CN2CCCCCC2)C(=O)CCC1 (centres undefined),6.18 mg/L
17,O=S1(=O)C=C(Sc2nnc(-c3ccncc3)o2)c2ccccc21,1.33 mg/L
18,Cc1c(C(=O)NC(=S)Nc2ccc(Oc3ccc(Cl)cc3)cc2)cccc1[N+](=O)[O-],1.49 mg/L
19,Clc1ccc(Cn2ncc3c(NCc4ccccc4)ncnc32)cc1,6.27 mg/L
20,N#Cc1ccc(-c2ccc(OCC(=O)Nc3cccnc3)cc2)cc1,< 0.1 mg/L
21,COC(=O)c1sc(NC(=O)c2c(F)c(F)c(F)c(F)c2F)c(C(N)=O)c1C,< 0.1 mg/L
